# Read-outs that look alike come from different tables or passages of the source.
# How the values were obtained:
# STAT3 = STAT3 phosphorylation in TAC hearts; assay type: in vivo, mouse
# Description: Myocardial tissue extract was electrophoresed in SDS-New Page gel, and probed for both tyrosine phosphorylated (Tyr705) and total Stat3. In additional studies, rat neonatal myocytes were cultured, then exposed to interleukin 6 (IL-6, Cell Signaling, 100 ng/ml) for one hour. […] In other studies, cells were pre-transfected (Lipofectamine™, Invitrogen) with mixed oligonucleotide silencing RNAs for STAT3 (siRNA, SmarTTpool Stat3). Protein extracts were obtained from myocyte extracts after the 1 hour incubation period, and probed for phosphorylated and total protein levels of Stat1 (Tyr701) and Stat3 (Tyr705) (Cell Signaling Inc.). siRNA was transfected into neonatal myocytes.
# GSK3β = GSK3β phosphorylation in TAC hearts (Western blot); assay type: in vivo, mouse
# Description: Protein was prepared from snap-frozen heart tissue using extraction buffer as described previously^90. Antibodies included calcineurin (1:2000 dilution, BD Transduction Laboratories (San Diego, Calif.), GSK3β, Ser9-phospho-GSK313, Akt, Ser473-phospho-Akt, ERK, Thr202/Thr204-phospho-ERK (1:1000 dilution, Cell Signaling Technology, Beverly, Mass.). Primary antibody binding was visualized by horse radish peroxidase-conjugated secondary antibodies and enhanced chemiluminescence (Pierce, Rockford, Ill.).
# [1] = tested on: C57BL/6 mice, pressure overload by transverse aortic constriction; experiment: In vivo cardiac hemodynamics by pressure-volume analysis, TAC mice; design: species or system mouse
# Description: Pressure overload was produced by transverse aortic constriction.
# Transthoracic two-dimensional guided M-mode echocardiography was performed in non-anesthetized mice. Measurements were done using an echocardiography system, the SEQUOIA C256 (Siemens, Munich, Del.) with the 15 MHz linear-array transducer. Intact heart hemodynamic analysis was performed as described^90. These studies employed a four-electrode pressure-volume catheter (model SPR-839, Millar Instruments) placed through the left ventricular apex in the open chest anesthetized animal and positioned along the longitudinal axis to record chamber volume by impedance and pressure by micromanometry.
# All hemodynamic data were recorded using custom developed software, digitizing signals at 2 KHz. End-diastolic and end-systolic volumes were the average of volumes measured during isovolumic contraction and relaxation, respectively. ESP was the pressure at maximal chamber elastance (P/V ratio)^1. EDP was the diastolic pressure at the lower right hand corner of the pressure-volume loop. Cardiac output was determined from a perivascular flow probe (Transonics, Ithica, N.Y.) placed around the thoracic aorta. Ea was equal to the ratio of end-systolic pressure divided by stroke volume. The volume catheter signal was calibrated for both gain and offset. Gain was determined by setting the catheter-derived cardiac output (equal to pressure-volume loop width times heart rate) to that obtained from the calibrated flow probe value. Offset was determined using the hypertonic saline method Ventricular power was equal to the instantaneous product of pressure times flow, and the peak power was divided by EDV to obtain the power index PMXI^79. […] The slope of this relation Ees was normalized by heart mass and expressed per gm heart mass. Msw was derived from the linear relation between stroke work and EDV from the same set of variably loaded cardiac cycles used to derive Eesn, and is another load-independent assessment of systolic contractile function^4. Tau was obtained from the model: P=Po+ae^−t/□ . . . fitting data during isovolumic relaxation. dP/dt was derived from a digital filter (5-point weighted slope). PFR/EDV was derived from the maximal first derivative of the volume signal during early diastole, divided by EDV.
# [2] = tested on: neonatal rat cardiac myocytes; experiment: Phenylephrine-induced hypertrophy of neonatal rat cardiomyocytes (sarcomere organization, 3H-leucine incorporation); assay type: cell-based; conditions: phenylephrine 1 μM, sildenafil 100 nM or 1 μM
# [3] = tested on: C57bl6 mice, isoproterenol-stimulated heart; experiment: Acute isoproterenol-stimulated contractility in intact mice (pressure-volume relations); assay type: in vivo, mouse
# Description: Isoproterenol (ISO: 20 ng/kg/minutes i.v.×5 min) with or without PDE5A inhibitor was given to anesthetized intact mice, and in vivo heart function assessed by pressure-volume relations at a fixed atrial pacing rate of 600-650 min^−1. Data were measured at baseline, with ISO, re-baseline, PDE5A-inhibition, and PDE5A inhibition+ISO. The ISO-only response was highly reproducible.
# cGMP = cGMP FRET imaging in neonatal rat myocytes; assay type: cell-based
# Description: Ventricular myocytes from 1-2 days old Sprague Dawley rats (CharlesRiver Lab, MA) were prepared and transfected with the vector carrying the cGMP sensor cygnet-2.1^77 in which EYFP was substituted with the less pH sensitive variant citrine^89, and imaged eighteen-twenty-four hours after transfection as described^90. Images (50-80 ms exposure) were acquired every 10 seconds using custom software and processed by Imagej (NIH, MD). FRET was the change in 480 nm/545 nm emission intensities (ΔR) upon 430 nm excitation^91 expressed as percent change over the basal intensity (R0). Cells were bathed in HEPES buffered Ringer's modified saline (1 mmol/L CaCl2), at room temperature (20-22° C.).
# [4] = tested on: isolated adult murine myocytes; experiment: Isoproterenol-stimulated contraction of isolated adult cardiac myocytes; assay type: cell-based, mouse; conditions: sildenafil 100 nM
# Description: Louis, Mo.) for 6-7 min. Ventricles were gently chopped, filtered (150μ mesh), centrifuged (500 RPM×1 min), and rinsed in Tyrode's solution with increasing calcium (final 1.8 mM Ca^2+). Cells were incubated with 5 μM Indo-1 AM (Molecular Probes), rinsed, and studied at 27° C. by field stimulation in an inverted fluorescence microscope (Diaphot 200; Nikon, Inc). Sarcomere length (IonOptix, MA) and whole cell calcium transients were measured.
smiles,measurement,setting,value
CCCc1nn(C)c2c(=O)[nH]c(-c3cc(S(=O)(=O)N4CCN(C)CC4)ccc3OCC)nc12 [sildenafil],STAT3 activation (phosphorylation),STAT3,inhibits activation of STAT3
same,GSK3β activation,GSK3β; 1-week TAC,remained unchanged
same,Akt and GSK3β activation,GSK3β; 9-weeks TAC,reduced both
same,CO (cardiac output),[1]; 3 wk TAC + Delay (2 wk) Sil,10.7 ± 0.5 mL/min
same,EDP (LV end-diastolic pressure),[1]; 3 wk TAC + Delay (2 wk) Sil,7.5 ± 0.6 mmHg
same,EDV (LV end-diastolic volume),[1]; 3 wk TAC + Delay (2 wk) Sil,29.4 ± 2.0 µL
same,EF (ejection fraction),[1]; 3 wk TAC + Delay (2 wk) Sil,64.0 ± 4.7%
same,ESP (LV end-systolic pressure),[1]; 3 wk TAC + Delay (2 wk) Sil,184.0 ± 9.1 (b) mmHg
same,ESV (LV end-systolic volume),[1]; 3 wk TAC + Delay (2 wk) Sil,10.9 ± 2.1 µL
same,Ea (effective arterial elastance),[1]; 3 wk TAC + Delay (2 wk) Sil,9.9 ± 0.6 (b) mmHg/μL
same,Eesn (end-systolic elastance normalized to heart mass),[1]; 3 wk TAC + Delay (2 wk) Sil,111.0 ± 31.4 mmHg/μL/g
same,HR (heart rate),[1]; 3 wk TAC + Delay (2 wk) Sil,574.6 ± 21.7 MIN^−
same,Msw (preload recruitable stroke work),[1]; 3 wk TAC + Delay (2 wk) Sil,171.3 ± 27.6 (i) mmHg
same,PFR/EDV (peak diastolic filling rate normalized to EDV),[1]; 3 wk TAC + Delay (2 wk) Sil,30.6 ± 3.6 s⁻¹
same,Tau (time constant of pressure relaxation),[1]; 3 wk TAC + Delay (2 wk) Sil,7.5 ± 0.3 M·s
same,dP/dtmax (maximal rate of pressure rise),[1]; 3 wk TAC + Delay (2 wk) Sil,14879 ± 898 mmHg/s
same,dP/dtmin (peak rate of LV pressure decline),[1]; 3 wk TAC + Delay (2 wk) Sil,−14325 ± 445 (j) mmHg/s
same,dP/dtmx/IP (dP/dtmax normalized to instantaneous developed pressure),[1]; 3 wk TAC + Delay (2 wk) Sil,209.4 ± 11.1 s⁻¹
same,CO (cardiac output),[1]; 3 wk TAC + Sil,9.4 ± 0.5 mL/min
same,EDP (LV end-diastolic pressure),[1]; 3 wk TAC + Sil,7.6 ± 1.4 mmHg
same,EDV (LV end-diastolic volume),[1]; 3 wk TAC + Sil,22.2 ± 1.5 µL
same,EF (ejection fraction),[1]; 3 wk TAC + Sil,72.6 ± 5.7%
same,ESP (LV end-systolic pressure),[1]; 3 wk TAC + Sil,163.6 ± 5.6 (b) mmHg
same,ESV (LV end-systolic volume),[1]; 3 wk TAC + Sil,6.4 ± 1.7 µL
same,Ea (effective arterial elastance),[1]; 3 wk TAC + Sil,10.5 ± 0.8 (b) mmHg/μL
same,Eesn (end-systolic elastance normalized to heart mass),[1]; 3 wk TAC + Sil,133.0 ± 25.1 (i) mmHg/μL/g
same,HR (heart rate),[1]; 3 wk TAC + Sil,598.8 ± 23.8 MIN^−
same,Msw (preload recruitable stroke work),[1]; 3 wk TAC + Sil,162.5 ± 10.5 (i) mmHg
same,PFR/EDV (peak diastolic filling rate normalized to EDV),[1]; 3 wk TAC + Sil,43.1 ± 4.9 (k) sec^−1
same,Tau (time constant of pressure relaxation),[1]; 3 wk TAC + Sil,6.3 ± 0.4 M·s
same,dP/dtmax (maximal rate of pressure rise),[1]; 3 wk TAC + Sil,18638 ± 1379 (f) mmHg/s
same,dP/dtmin (peak rate of LV pressure decline),[1]; 3 wk TAC + Sil,−16758 ± 917 (f) mmHg/s
same,dP/dtmx/IP (dP/dtmax normalized to instantaneous developed pressure),[1]; 3 wk TAC + Sil,256.5 ± 8.4 g/s
same,CO (cardiac output),"[1]; Sildenafil 3 wk, no TAC",11.1 ± 1.1 mL/min
same,EDP (LV end-diastolic pressure),"[1]; Sildenafil 3 wk, no TAC",6.5 ± 1.0 mmHg
same,EDV (LV end-diastolic volume),"[1]; Sildenafil 3 wk, no TAC",32.8 ± 2.3 µL
same,EF (ejection fraction),"[1]; Sildenafil 3 wk, no TAC",61.4 ± 6.1%
same,ESP (LV end-systolic pressure),"[1]; Sildenafil 3 wk, no TAC",101.5 ± 2.6 mmHg
same,ESV (LV end-systolic volume),"[1]; Sildenafil 3 wk, no TAC",13.0 ± 2.7 µL
same,Ea (effective arterial elastance),"[1]; Sildenafil 3 wk, no TAC",5.3 ± 0.5 mmHg/μL
same,Eesn (end-systolic elastance normalized to heart mass),"[1]; Sildenafil 3 wk, no TAC",47.6 ± 5.8 mmHg/μL/g
same,HR (heart rate),"[1]; Sildenafil 3 wk, no TAC",558.5 ± 22.9 MIN^−
same,Msw (preload recruitable stroke work),"[1]; Sildenafil 3 wk, no TAC",84.0 ± 5.7 mmHg
same,PFR/EDV (peak diastolic filling rate normalized to EDV),"[1]; Sildenafil 3 wk, no TAC",34.1 ± 1.9 s⁻¹
same,Tau (time constant of pressure relaxation),"[1]; Sildenafil 3 wk, no TAC",7.6 ± 0.4 M·s
same,dP/dtmax (maximal rate of pressure rise),"[1]; Sildenafil 3 wk, no TAC",11843 ± 681 mmHg/s
same,dP/dtmin (peak rate of LV pressure decline),"[1]; Sildenafil 3 wk, no TAC",−10689 ± 399 mmHg/s
same,dP/dtmx/IP (dP/dtmax normalized to instantaneous developed pressure),"[1]; Sildenafil 3 wk, no TAC",183.7 ± 6.9 s⁻¹
same,"PE-induced cellular hypertrophy (sarcomere organization, protein synthesis)",[2],suppressed
same,isoproterenol-stimulated contractility in intact heart,[3]; acute intravenous administration,marked suppression of this adrenergic stimulation response
same,effect on the heart at rest (dP/dtmax),"[3]; given alone, no ISO",no effect on the heart at rest
same,cGMP FRET signal,cGMP,enhanced the FRET signal
same,cGMP FRET signal,cGMP; listed as SIL,raised cellular cGMP
same,isoproterenol-enhanced contraction of isolated cardiac muscle cells,[4],blunted
